Experimental data taken from patent US8222240B2, “Use of substituted cyclopropane acid derivatives for producing drugs for use in the treatment of metabolic syndrome” (Sanofi-Aventis Deutschland GmbH, priority 2004, dated 2012).

Experiments:
[1] = target: T1, GPCR HM74A (niacin receptor) (Homo sapiens, UniProt Q8TDS4); test: FLIPR in vitro functional assay, intracellular Ca2+ in recombinant HEK293 cells expressing HM74A and hybrid G-protein; assay type: cell-based; settings: relative to 1 μM niacin = 100%
T1 construct: expressed in transfected cells; host or cells: HEK293
Experimental: in vitro functional assays with recombinant cells; function-testing assays were carried out by means of the FLIPR technique (“Fluorescence Imaging Plate Reader”, Molecular Devices Corp.).
For the investigations, cells were seeded into 96-well microtiter plates (60 000 cells/well) and allowed to grow over night. The medium was removed and the cells were incubated in buffer which contained the fluorescent dye Fluo-4. After this loading with dye, the cells were washed, test substance was added, and changes in the intracellular Ca^2+ concentration were measured in the FLIPR apparatus.

lipolysis = test: Inhibition of lipolysis on the whole animal (plasma FFA, glycerol, triglycerides after p.o. administration); assay type: in vivo, Wistar rats; design: FFA / Glycerol / Triglyceride: unit not given here; settings: for FFA / Glycerol / Triglyceride: 3 mg/kg po, Wistar rats
Experimental: The effect was tested on the whole animal (mouse, rat, hamster or dog), after a fasting period (e.g. of about 16 hours the substance is administered (e.g. p.o., iv., i.p., s.c.) and, with or without additional stimulation of endogenous lipolysis (e.g. by a bolus injection of 2 mg/kg i.p. isoprenaline), the effect of the test substance on lipolysis was determined on the basis of the liberated free fatty acids (FFA), glycerol and triglycerides by obtaining a blood sample (e.g. by retroorbital blood sampling) e.g. 15 min, 30, 60, 120 etc minutes after p.o. administration, and analyzing by standard methods of clinical chemistry (e.g. L. Thomas: Labor und Diagnose, 2nd edition, Medizinische Verlagsgesellschaft, Marburg/L. 1984; ISBN 3-921320-10-9)). The inhibition of lipolysis by the inhibitors is analyzed by comparing with the rate of lipolysis in correspondingly treated control animals.

T1 sequence (Q8TDS4 whole entry): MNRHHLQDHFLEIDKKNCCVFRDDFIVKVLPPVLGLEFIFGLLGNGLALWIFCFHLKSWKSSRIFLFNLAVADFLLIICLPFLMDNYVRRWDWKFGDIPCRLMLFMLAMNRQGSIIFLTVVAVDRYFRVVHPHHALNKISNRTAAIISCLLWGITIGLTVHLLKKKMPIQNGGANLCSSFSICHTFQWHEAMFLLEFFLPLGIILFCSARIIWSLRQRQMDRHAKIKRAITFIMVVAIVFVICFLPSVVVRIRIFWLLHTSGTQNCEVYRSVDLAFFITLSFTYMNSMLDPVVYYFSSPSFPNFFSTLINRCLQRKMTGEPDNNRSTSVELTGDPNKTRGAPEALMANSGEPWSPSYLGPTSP

SMILES	EC50 [1] [nM]	further results
CC(C)(C)OC(=O)[C@H]1[C@H](C(=O)O)C1(C)C (racemic) [Example 20, 1RS-tertButoxycarbonyl-2RS-hydroxycarbonyl-3,3-dimethyl-cyclopropane]	> 30000	
CCOC(=O)[C@@H]1C[C@H]1C(=O)O (racemic) [Example 10, 1RS-Ethoxycarbonyl-2RS-hydroxycarbonyl-cyclopropane]	1480	
COC(=O)[C@H]1C[C@]1(C)C(=O)OC (relative stereo) [Example 6, Dimethyl 1-methyl-trans-cyclopropane-1,2-dicarboxylate]	> 30000	
CC#CCOC(=O)[C@@H]1C[C@H]1C(=O)O (racemic) [Example 19, 1RS-Butinyloxycarbonyl-2RS-hydroxycarbonyl-cyclopropane]	1630	
CCOC(=O)[C@@H]1C[C@H]1C(=O)OCC (relative stereo) [Example 8, Diethyl trans-1,2-cyclopropanedicarboxylate]	> 30000	
COC(=O)[C@@H]1C[C@H]1C(=O)O [Example 1, 1R-Methoxycarbonyl-2R-hydroxycarbonyl-cyclopropane]	70	
COC(=O)[C@H]1[C@H](C(=O)O)C1(C)C (racemic) [Example 9, 1RS-Methoxycarbonyl-2RS-hydroxycarbonyl-3,3-dimethyl-cyclopropane]	> 30000	
CCCOC(=O)[C@@H]1C[C@H]1C(=O)O (racemic) [Example 11, 1RS-Propoxycarbonyl-2RS-hydroxycarbonyl-cyclopropane]	2160	
O=C(O)[C@@H]1C[C@H]1C(=O)OCC1CCCCC1 (racemic) [Example 15, 1RS-Cyclohexyl-methyloxycarbonyl-2RS-hydroxycarbonyl-cyclopropane]	> 30000	
COC(=O)[C@@H]1C[C@H]1C(=O)O [Example 2, 1R-Methoxycarbonyl-2R-hydroxycarbonyl-cyclopropane]	130	
COC(=O)[C@H]1C[C@H]1C(=O)OC [Example 4, Dimethyl cis-1,2-cyclopropanedicarboxylate]	> 30000	
C=CCOC(=O)[C@@H]1C[C@H]1C(=O)O (racemic) [Example 17, 1RS-allyloxycarbonyl-2RS-hydroxycarbonyl-cyclopropane]	2830	
C#CCOC(=O)[C@@H]1C[C@H]1C(=O)O (racemic) [Example 18, 1RS-Propargyloxycarbonyl-2RS-hydroxycarbonyl-cyclopropane]	1510	
CC(C)COC(=O)[C@@H]1C[C@H]1C(=O)O (racemic) [Example 16, 1RS-isobutoxycarbonyl-2RS-hydroxycarbonyl-cyclopropane]	> 30000	
CC(C)OC(=O)[C@@H]1C[C@H]1C(=O)O (racemic) [Example 14, 1RS-iso-Propoxycarbonyl-2RS-hydroxycarbonyl-cyclopropane]	> 30000	
COC(=O)[C@H]1C[C@@H]1C(=O)OC (relative stereo) [Example 5, Dimethyl trans-1,2-cyclopropanedicarboxylate]	> 30000	FFA (lipolysis; Time 0): 0.47; Glycerol (lipolysis; Time 0): 87; Triglyceride (lipolysis; Time 0): 0.45; FFA (lipolysis; Time 15): 0.17; Glycerol (lipolysis; Time 15): 39; Triglyceride (lipolysis; Time 15): 0.45; FFA (lipolysis; Time 30): 0.13; Glycerol (lipolysis; Time 30): 33; Triglyceride (lipolysis; Time 30): 0.26; FFA (lipolysis; Time 60): 0.11; Glycerol (lipolysis; Time 60): 28; Triglyceride (lipolysis; Time 60): 0.15; FFA (lipolysis; Time 120): 0.25; Glycerol (lipolysis; Time 120): 57; Triglyceride (lipolysis; Time 120): 0.13; lipolysis (reduction in free fatty acids (FFA), glycerol and triglycerides) (lipolysis; doses of from 0.3 to 30 mg/kg po): distinctly reduced
CCCCOC(=O)[C@@H]1C[C@H]1C(=O)O (racemic) [Example 12, 1RS-Butoxycarbonyl-2RS-hydroxycarbonyl-cyclopropane]	670	
CCCCCOC(=O)[C@@H]1C[C@H]1C(=O)O (racemic) [Example 13, 1RS-Pentoxycarbonyl-2RS-hydroxycarbonyl-cyclopropane]	1610	
COC(=O)[C@@H]1C[C@H]1C(=O)O (racemic) [Example 7, 1RS-Methoxycarbonyl-2RS-hydroxycarbonyl-cyclopropane]	630	
COC(=O)[C@@H]1C[C@H]1C(=O)O [Example 3, 1R-Methoxycarbonyl-2R-hydroxycarbonyl-cyclopropane]	190	
